Experiments:
[1] = system: Ku812-Luc+ (BCR-ABL+CML blast crisis) cells; assay: In vivo imaging of chemotherapy-induced apoptosis (AMN107); parameters: species or system mice; settings: 100 mg/kg IP; day 5
Procedure: Subcutaneous tumors were established using Ku812-Luc+ (BCR-ABL+CML blast crisis) cells in NCr nude mice. When tumors were ˜1 cm, mice underwent bioluminescence imaging (BLI) to determine baseline tumor burden, followed by treatment with either AMN107 (nilotinib) at 100 mg/kg intraperitoneally (IP), or with vehicle. After 3 doses, animals were injected with 20 μg of LDH-Alexa750. Fluorescence imaging (FL) was performed 24 and 48 hrs after probe injection (day 4 and 5 of treatment) and BLI was repeated on day 5 of treatment (FIG. 9A).

[2] = system: apoptotic cells; assay: Staining requirements (temperature, calcium) of cLDHB and Annexin V; type: cell-based
Procedure: To determine if cLDHB is actively transported into cells, staining was performed at room temperature and at 4° C.
A major limitation of Annexin V staining is the requirement for supra-physiological concentrations of calcium (Tait, J. F., D. F. Gibson, and C. Smith, Anal Biochem, 2004. 329: 112-9). To determine whether cLDHB staining required calcium, Annexin V and cLDHB staining was performed in PBS (without calcium or magnesium) or in Annexin Binding Buffer (with 2.5 mM calcium).

[3] = system: apoptotic cells; assay: Homogeneous multiwell apoptosis assay in normal growth medium; type: cell-based; settings: e.g., RPMI with 10% FBS, flow cytometry or High-Content Microscopy
[4] = system: HeLa cells; assay: FACS staining of camptothecin-treated apoptotic HeLa cells; type: cell-based; settings: for percent apoptotic cells as measured with the probe: camptothecin; for cell staining over time (FACS): 12 h, 24 h, annexin binding buffer; for uptake by apoptotic HeLa cells (FACS) / uptake by control untreated HeLa cells (FACS): FIG. 6
Procedure: HeLa cells (5×10^5 in 10 cm plates) maintained in DMEM with 10% FBS were contacted with 5 μM camptothecin to induce apoptosis. Cell staining by FITC-labeled Annexin V (Abcam, Cambridge, Mass.) or Cy5.5-labeled chicken LDH (1 μL) prepared as described in Example 1, was measured by fluorescence-activated cell sorting (FACS) analysis (with cells in annexin binding buffer (Abcam)) 12 h, 24 h, and 48 h later. Untreated HeLa cells served as negative controls.
Staining by Annexin V is known to require the presence of calcium. […] HeLa cells treated with camptothecin to induce apoptosis as in Example 9 were stained with FITC-labeled Annexin V (Abcam, Cambridge, Mass.) or Cy5.5-labeled chicken LDH in calcium-containing Annexin buffer or in calcium-free PBS. Stained cells were analyzed by FACS analysis as in Example 9.
HeLa cells (5×10^5 in 10 cm plates) maintained in DMEM with 10% FBS were contacted with 5 μM camptothecin to induce apoptosis. Cell staining was done in the media: (i) annexin buffer, (ii) DMEM supplemented with 1% FBS; (iii) DMEM supplemented with 2% FBS; (iii) DMEM supplemented with 5% FBS; (iv) DMEM supplemented with 10% FBS. For cell staining FITC-labeled Annexin V (Abcam, Cambridge, Mass.) or Cy5.5-labeled chicken LDH (1 μL) prepared as described in Example 1, was used to for FACS analysis (cells in annexin binding buffer (Abcam)) 48 h later. Untreated HeLa cells served as negative controls. […]

[5] = system: HeLa cells; assay: Confocal microscopy of stained apoptotic HeLa cells; type: cell-based
[6] = system: RS4;11 cells; assay: FACS staining of RS4;11 cells treated with NVP-LAQ824; type: cell-based; settings: RS4;11, 50 nM NVP-LAQ824, 24 h
Procedure: RS4;11 is a MLL-AF4 fusion transcript-positive t(4;11) pre-B ALL cell line that is highly resistant to chemotherapy and radiation. In this experiment RS4;11 cells (1×10^6) were treated with 50 nM NVP-LAQ824 (Novartis Pharma, Basel, Switzerland) for 24 h and then contacted with FITC-labeled Annexin V (Abcam, Cambridge, Mass.) or Cy5.5-labeled chicken LDH and analyzed by FACS as in Example 9. NVP-LAQ824 is a potent hydroxamic acid-derived histone deacetylase inhibitor that induces apoptosis in nanomolar concentrations in myeloid leukemia cell lines, multiple myeloma, and patient samples. Catley L et al. (2003) Blood 102:2615-22.
In a related experiment, RS4;11 cells were treated with 50 nM NVP-LAQ824 in culture media for 24 h and then stained with FITC-labeled Annexin V or A680-labeled human LDH-B in either Annexin buffer or culture media. Apoptosis was measured by FACS analysis. Results indicated a significant difference between 11-12 percent apoptotic cells as measured with FITC-labeled Annexin V in Annexin buffer versus only 4 percent apoptotic cells as measured with FITC-labeled Annexin V in culture media. In contrast, results indicated 11-12 percent apoptotic cells as measured with A680-labeled LDH-B, whether in Annexin buffer or culture media.

[7] = system: THP-1 cells; assay: Competition for Annexin V and LDHB binding to apoptotic THP-1 cells; type: cell-based; settings: probe 0.1 μM; for staining of apoptotic cells in the presence of excess unlabeled Annexin V: 5- and 10-fold excess
Procedure: To determine whether physiological levels of LDH may preclude binding of a LDH probe, the ability of excess unlabeled cLDHB and Annexin V to compete for binding of apoptotic cells by FITC conjugated Annexin V and cLDHB was assessed.
Apoptosis was induced in THP-1 cells with LAQ824 (50 nM, 18 hrs), and cells were stained with either Annexin V-FITC or cLDHB-FITC at a final concentration of 0.1 μM. For competition, staining was performed in the presence of excess unlabeled LDHB or Annexin V.

[8] = system: THP-1 cells; assay: Staining of THP-1 cells treated with HDAC inhibitor LAQ824; type: cell-based; settings: THP-1, LAQ824 50 nM, 18 hrs
Procedure: To correlate cLDHB staining with other measures of apoptosis, a fluorescent probe that binds to activated caspases (pan-caspase-FLICA, Immunochemistry Tech) was used. THP-1 cells were treated with the HDAC inhibitor LAQ824 (50 nM, 18 hrs) to induce apoptosis.
Similarly, we asked whether the […] proteins performed comparably to purified recombinant LDH.

[9] = calcium-containing Annexin V buffer

Molecule: Cc1cn(-c2cc(NC(=O)c3ccc(C)c(Nc4nccc(-c5cccnc5)n4)c3)cc(C(F)(F)F)c2)cn1 [AMN107, nilotinib]
- difference between treated animals and vehicle-treated controls by BLI [1]: 2 log
- tumor response by BLI [1]: tumor regression

Molecule: Annexin V: fluorescently labeled Annexin V probe used as comparator; FITC-labeled in Example 12 [reference compound]
- staining in PBS (without calcium or magnesium) compared to Annexin Binding Buffer (2.5 mM calcium) [2]: significantly decreased
- staining / quantification of apoptosis with probe added directly to normal growth medium [3]: No Annexin V staining
- percent apoptotic cells as measured with the probe ([4]; FBS 10 percent, HeLa, 48 h): about 15%
- percent apoptotic cells as measured with the probe ([4]; FBS zero, HeLa, 48 h): about 50%
- change of staining with increasing amounts of FBS (FACS) ([4]; HeLa treated with camptothecin): significantly decreased

Molecule: Cy5.5-labeled Annexin V: Cy5.5-labeled Annexin V (Abcam) [reference compound]
- staining pattern (confocal microscopy) [5]: membranous

Molecule: Cy5.5-labeled chicken LDH: chicken lactate dehydrogenase (LDH-B) labeled with Cy5.5 N-hydroxysuccinimide ester as described in Example 1
- staining pattern (confocal microscopy) [5]: punctate cytoplasmic
- apoptosis over background levels as measured with the probe [6]: only a mild increase
- staining compared to FITC-Annexin V [6]: comparable
- proportion of apoptotic cells detected compared to FITC-labeled Annexin V ([4]; HeLa, 5 μM camptothecin): comparable
- cell staining over time (FACS) ([4]; HeLa, 5 μM camptothecin, 48 h): progressively stained positive
- staining of apoptotic cells (FACS) [4, 9]: strongly and equally positive
- staining of apoptotic cells (FACS) ([4]; calcium-free PBS): strongly and equally positive
- percent apoptotic cells as measured with the probe ([4]; over the range FBS zero to 10 percent, HeLa, 48 h): about 65%

Molecule: FITC-labeled Annexin V: FITC-labeled Annexin V (Abcam), phosphatidylserine-binding apoptosis probe [reference compound]
- staining pattern (confocal microscopy) [5]: membranous
- staining of apoptotic cells in the presence of excess unlabeled Annexin V [7]: abrogated
- apoptosis over background levels as measured with the probe [6]: only a mild increase
- apoptotic cells as measured with the probe ([6]; staining in culture media): 4%
- cell staining over time (FACS) ([4]; HeLa, 5 μM camptothecin, 48 h): progressively stained positive
- staining of apoptotic cells (FACS) [4, 9]: strongly positive
- staining of apoptotic cells (FACS) ([4]; calcium-free PBS): essentially not at all

Molecule: FITC-labeled chicken LDH: chicken LDH-B labeled with fluorescein isothiocyanate
- staining pattern (confocal microscopy) [5]: punctate cytoplasmic
- staining of apoptotic cells in the presence of excess unlabeled Annexin V [7]: no effect
- staining of apoptotic cells in the presence of excess unlabeled LDHB ([7]; up to 100-(10 μM) and 350-fold (35 μM) excess): only marginally altered

Molecule: LDHB: LDHB not fused to GST, served as a positive control
- uptake by / staining of apoptotic cells (FACS) ([4]; HeLa, 5 μM camptothecin, 48 h, FIG. 5): stained apoptotic cells

Molecule: cLDHB-A680: chicken LDHB labeled with A680 (Alexa 680)
- coincidence of staining with caspase activation (pan-caspase-FLICA) [8]: entirely coincident

B1: labeled MDH: Cy5.5-labeled E. coli malate dehydrogenase (Alexa 680-labeled per FIG. 6 legend) (conjugate, UniProt P61889 1-312, looked up)
Malate dehydrogenase: MKVAVLGAAGGIGQALALLLKTQLPSGSELSLYDIAPVTPGVAVDLSHIPTAVKIKGFSGEDATPALEGADVVLISAGVARKPGMDRSDLFNVNAGIVKNLVQQVAKTCPKACIGIITNPVNTTVAIAAEVLKKAGVYDKNKLFGVTTLDIIRSNTFVAELKGKQPGEVEVPVIGGHSGVTILPLLSQVPGVSFTEQEVADLTKRIQNAGTEVVEAKAGGGSATLSMGQAAARFGLSLVRALQGEQGVVECAYVEGDGQYARFFSQPLLLGKNGVEERKSIGTLSAFEQNALEGMLDTLKKDIALGEEFVNK
modifications: Cy5.5 or Alexa 680 label
- uptake by apoptotic HeLa cells (FACS) ([4]; 5 μM camptothecin): taken up
- uptake by control untreated HeLa cells (FACS) [4]: not by control untreated HeLa cells

B2: labeled ADH: Cy5.5-labeled yeast alcohol dehydrogenase (Alexa 680-labeled per FIG. 6 legend) (conjugate, UniProt P00330 2-348, looked up)
Alcohol dehydrogenase 1: SIPETQKGVIFYESHGKLEYKDIPVPKPKANELLINVKYSGVCHTDLHAWHGDWPLPVKLPLVGGHEGAGVVVGMGENVKGWKIGDYAGIKWLNGSCMACEYCELGNESNCPHADLSGYTHDGSFQQYATADAVQAAHIPQGTDLAQVAPILCAGITVYKALKSANLMAGHWVAISGAAGGLGSLAVQYAKAMGYRVLGIDGGEGKEELFRSIGGEVFIDFTKEKDIVGAVLKATDGGAHGVINVSVSEAAIEASTRYVRANGTTVLVGMPAGAKCCSDVFNQVVKSISIVGSYVGNRADTREALDFFARGLVKSPIKVVGLSTLPEIYEKMEKGQIVGRYVVDTSK
modifications: Cy5.5 or Alexa 680 label
- uptake by apoptotic HeLa cells (FACS) ([4]; 5 μM camptothecin): taken up
- uptake by control untreated HeLa cells (FACS) [4]: not by control untreated HeLa cells

— US8999661B2, “Compositions for detecting cell death and methods of use thereof” (Dana-Farber Cancer Institute, Inc., priority 2008, dated 2015)
